Reference: patent US8211912B2, “Compositions and methods for effecting NAD+ levels using a nicotinamide phosphoribosyl tranferase inhibitor” (Gemin X Pharmaceuticals Canada, priority 2007, dated 2012)
Several values for one entry are separate records, joined by “and”; a condition that tells them apart may be missing. Equal entries are not always repeated.

Assays:
human NMPRT = human NMPRT (Homo sapiens, UniProt P43490); assay: Recombinant NMPRT coupled-enzyme fluorescence assay; format: biochemical; set-up: made in house; host or cells: E. coli BL21(DE3)pLysS; conditions: two independent experiments; Cheng-Prusoff; His-Flag tagged recombinant NMPRT
Description: Human NMPRT cDNA (Origene; Rockville, Md.) was cloned into the pET151 vector (Invitrogen; Carlsbad, Calif.). The resulting construct encodes a recombinant NMPRT protein with hexahistidine and FLAG epitope tags at the NH2-terminus. Four liters of BL21(DE3)pLysS bacteria (Invitrogen; Carlsbad, Calif.) at O.D. ˜0.6 in LB media were induced to express the NMPRT protein with 200 μM IPTG (Roche Diagnostics; Mannheim, Germany) for 3.5 hours with shaking (250 rpm) at 37° C. The bacterial cells were harvested by centrifugation at 6,000 g for 15 minutes at 4° C., the supernatant was discarded and the cells frozen at −20° C. […] The protein concentration was determined by Bradford assay (Bio-Rad; Hercules, Calif.).
The activity of recombinant NMPRT was assessed using a coupled-enzyme fluorescence assay based on the quantitation of NAD^+. […] Fluorescence was measured using a Tecan Safire plate reader (Tecan-US; Durham, N.C.) with an excitation wavelength of 560 nm and emission wavelength of 590 nm. The Km for nicotinamide was determined for every preparation of the enzyme and a titration of NAD^+ was run with every assay to ensure that measurements were within the linear range. […] The Ki was calculated using Prism version 4.0 (Graphpad Software, Inc; San Diego, Calif.) and the Cheng-Prusoff Equation. […]
(§1) IC50 value for the compound was determined in IM-9 and HCT-116 cells by ViaLight essay as described supra.

[1] = system: NAD^+ synthesis in HeLa cells and HeLa cell extracts; assay: Conversion of ^14C nicotinamide or ^14C nicotinic acid to ^14C-labeled NAD^+ (TLC); conditions: Compound 1 20 nM
Description: In vivo: HeLa cells (1×10^6 per sample) were plated 14-16 hours prior to the start of drug treatment. […] Cells were harvested by trypsinization and collected by centrifugation, and cell pellets resuspended in 50 μl of 10 mM NaH2PO4. To extract the radiolabeled nucleotide metabolites, the cells were lysed by 6 freeze-thaw cycles of liquid nitrogen/37° C. water bath. Precipitates were removed by centrifugation at 13,000 g for 20 mins.
In vitro: Untreated HeLa cells were harvested by trypsinization, collected by centrifugation and resuspended at 2.5×10^7 cells/mL in 10 mM NaH2PO4 buffer then cell extracts were made by 6 freeze-thaw cycles as above and cell extracts clarified by centrifugation at 23,000 g at 4° C. for 90 mins. […] The reaction was terminated by incubation at 100° C. for 2 mins. The radiolabeled nucleotides were separated by thin-layer chromatography and identified by comparison with radiolabeled standards of NAD^+, its precursors and metabolites (Moravek Biochemicals; Brea, Calif.). Approximately 10 μL of each sample was spotted onto Silica gel 60 plates (Merck KGaA, EMD chemicals Inc; Gibbstown, N.J.) and resolved in a solvent of isobutyric acid: ammonium hydroxide:water (66:1:33) overnight. The dried TLC plates were then exposed to BAS-MS screens (Fuji Photo Film Co. LTD; Kanagawa, Japan) for 2-3 days, scanned on a Typhoon Imager (Amersham; Piscataway, N.J.). […]

[2] = system: C666-1 (human undifferentiated nasopharyngeal cancer) cells; assay: Cell viability assay with radiation therapy; format: cell-based; conditions: increasing concentrations of Compound 1, 24 hours prior to radiation therapy
[3] = system: DMS-114 human small cell lung carcinoma cells; assay: Sensitization to DNA damaging chemotherapeutic agents, relative ATP viability, 3 days; format: cell-based; conditions: 0.75 nM Compound 1 alone, 3 days; one value per experiment series (row agent); 0.00075 µM
Description: Cells were plated in logarithmic growth phase at 500-20,000 cells per well in 96-well clear bottom plates (Corning; Corning, N.Y.) and cultured for 14 to 16 hours prior to the start of drug treatment. Serial dilutions of Compound 2 and Compound 1 were made in DMSO, diluted 1:50 in RPMI-1640 (Hyclone; Logan, Utah) and then added to tissue culture media at a final concentration of 0.2% DMSO. […] Relative ATP levels were determined by the bioluminescent measuring of cellular ATP levels in each culture well with the ViaLight-HS High Sensitivity Cytotoxicity and Cell Proliferation BioAssay Kit (Cambrex Bioproducts, Cat. No. LT07-311; Charles City, Iowa) according to manufacturer's instructions. Briefly, a cell permeabilizing reagent was added to each culture well in media at the time of viability determination, allowing free ATP to be released from viable cells in the culture. Addition of luciferase to the mixture catalyzes the release of light proportional to the amount of free ATP present, which can then be quantified in a Centro LB 960 luminometer (EG&G Berthold; Oak Ridge, Tenn.); the level of ATP is generally directly proportional to the viability of the cells.
Sigmoidal dose response curves were then generated using non-linear regression analysis of variable slope by Prism Version 4.00 for Windows (GraphPad Software, Inc.; San Diego, Calif.) and IC50 values calculated.
The IC50 values for the treatment with the DNA damaging agent were calculated relative to control cells that were treated with DMSO only.

HCT-116 (Colon) = assay: Cell viability assay (72 h, ViaLight, relative ATP levels); format: cell-based
Description: as §1

human NMPRT, sequence (P43490 whole entry): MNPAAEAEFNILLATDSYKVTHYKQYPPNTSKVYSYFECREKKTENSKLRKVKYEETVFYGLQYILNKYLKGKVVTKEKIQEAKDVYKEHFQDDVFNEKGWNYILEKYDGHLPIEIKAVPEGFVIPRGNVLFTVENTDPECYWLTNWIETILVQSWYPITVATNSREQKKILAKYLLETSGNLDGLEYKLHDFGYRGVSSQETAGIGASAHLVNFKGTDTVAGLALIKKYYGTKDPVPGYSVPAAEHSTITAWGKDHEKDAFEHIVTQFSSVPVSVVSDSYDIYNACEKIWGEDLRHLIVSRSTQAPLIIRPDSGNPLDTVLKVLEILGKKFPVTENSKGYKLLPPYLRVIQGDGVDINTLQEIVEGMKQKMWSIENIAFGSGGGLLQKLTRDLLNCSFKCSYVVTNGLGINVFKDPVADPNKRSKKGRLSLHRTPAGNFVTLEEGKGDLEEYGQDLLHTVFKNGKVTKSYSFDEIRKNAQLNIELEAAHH

4-[N′-cyano-N″-(6-(4-chlorophenoxy)-hexyl)-N-guanidino]-pyridine [Compound 1]
Ki (human NMPRT): 1 nM | NAD^+ synthesis from nicotinamide ([1]; ^14C nicotinamide): blocks | NAD^+ synthesis from nicotinic acid ([1]; ^14C nicotinic acid): not | Cytotoxicity with radiation therapy [2]: higher level of cytotoxicity and an enhanced anticancer activity in comparison to radiation therapy alone | Percent viability of DMS-114 cells, 0.75 nM Compound 1 (no DNA damaging chemotherapeutic agent) [3]: 47.7 ± 12% and 61.9 ± 16% and 57.9% and 53.20 ± 9.1% | IC50 (HCT-116 (Colon)): 2.3 ± 0.64 nM
